According to publication PMC8470483, “Bidirectional Influences of Cranberry on the Pharmacokinetics and Pharmacodynamics of Warfarin with Mechanism Elucidation” (Nutrients, 2021):
Like-named read-outs stand apart in the source and are kept apart here. Marks after values point to notes of the source that are not given here.

Key:
[1] = rats; for Change of AUC0–10 vs warfarin alone / Change of AUC0–t vs warfarin alone / Change of Cmax vs warfarin alone: CJ 5.0 g/kg 0.5 h before warfarin; for Effect of CJ on AUC0–t / Effect of CJ on Cmax: CJ given at 10 h after (±) warfarin; for Decrease of AUC0-t / Decrease of AUC0–10 / Decrease of Cmax: CJ ingestion at 0.5 h before (±) warfarin, vs warfarin alone; for AUC0–10 / AUC0–t / AUC48–96 / Cmax: mean ± S.E.
Procedure: In the pharmacokinetic interaction study, the rats were randomly divided into three groups (n = 7 in each group). The first group of rats was orally administered (±) warfarin (0.2 mg/kg) alone. The second and third groups of rats were administered CJ (5 g/kg) at 0.5 h prior to (±) warfarin and at 10 h after (±) warfarin dosing, respectively. The study was performed in a parallel design. Blood samples were drawn at 0.5, 1.0, 2.0, 6.0, 10, 24, 48, 72, and 96 h after (±) warfarin dosing and collected in a Vacutainer K2 EDTA tube (BD, New Jersey, USA). The blood samples were centrifuged to obtain plasma.
Briefly, 100 µL of plasma was mixed with 50 µL of 0.5N formic acid and then partitioned with 150 µL of ethyl acetate containing 10 µg/mL of caffeic acid as an internal standard.
The pharmacokinetic parameters were calculated by Phoenix WinNonlin® version 8.1 (Pharsight Corporation, St. Louis, MO, USA). The unpaired Student’s t-test and one-way ANOVA were used for statistical comparisons, taking p < 0.05 as significant.

[2] = Measurement of INR in rats (anticoagulation effect of warfarin); format: in vivo; settings: for INR value at 24 h: mean ± S.E.
Procedure: In the pharmacodynamic study, the rats were randomly divided into four groups (n = 8 in each group). In the first experiment, two groups of rats were orally administered (±) warfarin (0.2 mg/kg) alone and with CJ (5 g/kg) given at 0.5 h prior to (±) warfarin dosing, and blood samples were drawn at 6, 10 and 24 h after (±) warfarin dosing. In the second experiment, two groups of rats were orally administered (±) warfarin (0.2 mg/kg) with and without CJ (5 g/kg), given at 10 h after (±) warfarin dosing, and blood samples were drawn at 10, 24, and 48 h after (±) warfarin dosing.
Ten µL of blood was collected and the INR was measured using CoaguChek® XS System (Roche Diagnostics GmbH, Mannheim, Germany). All procedures followed the manufacturer’s protocol.

CYP2C9 = CYP2C9 (Homo sapiens, UniProt P11712); test: Vivid CYP450 screening kit, CYP2C9 activity; settings: positive control, 10 μM, in blank serum
Procedure: Vivid® CYP450 screening kits were used to evaluate the effects of CMs on the activities of CYP1A2, CYP2C9, and CYP3A4, individually [26, 27], and all the procedures were performed based on the standard protocols.

[3] = oral (±) warfarin 0.2 mg/kg + CJ 5.0 g/kg 0.5 h before warfarin
[4] = oral (±) warfarin 0.2 mg/kg + CJ 5.0 g/kg 10 h after warfarin
[5] = oral (±) warfarin 0.2 mg/kg alone

Sequence of CYP2C9 (P11712 whole entry): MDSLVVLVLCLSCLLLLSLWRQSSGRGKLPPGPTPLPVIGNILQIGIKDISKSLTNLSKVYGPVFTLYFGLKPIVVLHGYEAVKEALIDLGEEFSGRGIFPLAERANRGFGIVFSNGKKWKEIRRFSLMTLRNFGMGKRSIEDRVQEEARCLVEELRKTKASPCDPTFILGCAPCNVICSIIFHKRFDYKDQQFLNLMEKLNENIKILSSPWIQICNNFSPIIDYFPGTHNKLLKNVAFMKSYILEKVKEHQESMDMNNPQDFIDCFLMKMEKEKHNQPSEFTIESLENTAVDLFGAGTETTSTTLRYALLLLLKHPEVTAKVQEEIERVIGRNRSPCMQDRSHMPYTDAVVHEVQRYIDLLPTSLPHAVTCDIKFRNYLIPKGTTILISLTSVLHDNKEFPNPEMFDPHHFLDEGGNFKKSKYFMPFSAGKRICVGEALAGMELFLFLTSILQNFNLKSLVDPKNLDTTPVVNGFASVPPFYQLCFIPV

For `CC(=O)C[C@@H](c1ccccc1)c1c(O)c2ccccc2oc1=O` [S-warfarin], which “Change of AUC0–10 vs warfarin alone” value [1] is on record?
Its value is “(−52%)”.

What about the “Change of AUC0–t vs warfarin alone” value [1] of the same molecule?
The value was “(−34%)”.

What about the “Change of Cmax vs warfarin alone” value [1] of the same molecule?
The value was “(−48%)”.

And the “Effect of CJ on AUC0–t” value [1]?
The value was “not affected”.

What about the “Effect of CJ on Cmax” value [1] of the same molecule?
The value was “not affected”.

What about the “Decrease of AUC0-t” value [1] of the same molecule?
Its value is 34%.

And the “Decrease of AUC0–10” value [1]?
The value was 52%.

And the “Decrease of Cmax” value [1]?
Its value is 48%.

What about the “AUC0–10” value [1, 3] of the same molecule?
The value was 1561.8 ± 217.3 ^b h⋅ng/mL.

What about the “AUC0–t” value [1, 3] of the same molecule?
Its value is 6286.7 ± 456.3 ^b h⋅ng/mL.

And the “AUC48–96” value [1, 3]?
The value was 1041.3 ± 296.5 ^a h⋅ng/mL.

And the Cmax [1, 3]?
The Cmax was 216.3 ± 18.1 ^b ng/mL.

And the “AUC0–10” value [1, 4]?
Its value is 3846.6 ± 260.8 ^a h⋅ng/mL.

What about the “AUC0–t” value [1, 4] of the same molecule?
Its value is 11,555.0 ± 613.6 ^a h⋅ng/mL.

And the “AUC48–96” value [1, 4]?
The value was 2547.9 ± 339.5 ^b h⋅ng/mL.

What about the Cmax [1, 4] of the same molecule?
Its Cmax is 542.0 ± 59.4 ^a ng/mL.

And the “AUC0–10” value [1, 5]?
Its value is 3267.7 ± 423.2 ^a h⋅ng/mL.

What about the “AUC0–t” value [1, 5] of the same molecule?
The value was 9459.1 ± 1659.6 ^a h⋅ng/mL.

And the “AUC48–96” value [1, 5]?
The value was 1126.6 ± 434.5 ^a h⋅ng/mL.

What about the Cmax [1, 5] of the same molecule?
Its Cmax is 418.2 ± 69.4 ^a ng/mL.

Which “Change of AUC0–10 vs warfarin alone” value [1] does the source give for `CC(=O)C[C@H](c1ccccc1)c1c(O)c2ccccc2oc1=O` [R-warfarin] here?
Its value is “(−54%)”.

And the “Change of AUC0–t vs warfarin alone” value [1]?
Its value is “(−52%)”.

And the “Change of Cmax vs warfarin alone” value [1]?
Its value is “(−51%)”.

And the “Effect of CJ on AUC0–t” value [1]?
Its value is “not affected”.

And the “Effect of CJ on Cmax” value [1]?
Its value is “not affected”.

And the “Decrease of AUC0-t” value [1]?
The value was 52%.

What about the “Decrease of AUC0–10” value [1] of the same molecule?
The value was 54%.

What about the “Decrease of Cmax” value [1] of the same molecule?
Its value is 51%.

What about the “AUC0–10” value [1, 3] of the same molecule?
Its value is 1310.8 ± 169.6 ^b h⋅ng/mL.

What about the “AUC0–t” value [1, 3] of the same molecule?
Its value is 3007.6 ± 230.0 ^b h⋅ng/mL.

And the “AUC48–96” value [1, 3]?
Its value is 90.4 ± 58.2 h⋅ng/mL.

What about the Cmax [1, 3] of the same molecule?
The Cmax was 168.6 ± 17.2 ^b ng/mL.

What about the “AUC0–10” value [1, 4] of the same molecule?
Its value is 2943.7 ± 185.7 ^a h⋅ng/mL.

And the “AUC0–t” value [1, 4]?
The value was 4739.3 ± 255.0 ^ab h⋅ng/mL.

And the Cmax [1, 4]?
Its Cmax is 402.8 ± 33.6 ^a ng/mL.

And the “AUC0–10” value [1, 5]?
The value was 2848.9 ± 395.0 ^a h⋅ng/mL.

And the “AUC0–t” value [1, 5]?
The value was 6209.2 ± 1253.4 ^a h⋅ng/mL.

And the “AUC48–96” value [1, 5]?
The value was 222.0 ± 125.3 h⋅ng/mL.

What about the Cmax [1, 5] of the same molecule?
Its Cmax is 341.1 ± 56.6 ^a ng/mL.

With `CC(=O)CC(c1ccccc1)c1c(O)c2ccccc2oc1=O` (racemic) [(±) warfarin, (±) Warfarin sodium] as the molecule, how does the “INR value at 24 h” value ([2]; control rats, oral (±) warfarin 0.2 mg/kg alone) read?
Its value is 1.4 ± 0.1.

What about the “INR value at 24 h compared with control rats” value ([2]; rats, CJ given 0.5 h prior to warfarin) of the same molecule?
Its value is “not different from the control rats”.

And the “Increase of INR value at 24 h vs control rats” value ([2]; rats, CJ given 10 h after warfarin)?
Its value is 93%.

And the “INR value at 24 h” value ([2]; rats, oral (±) warfarin 0.2 mg/kg + CJ 5 g/kg given 0.5 h prior to warfarin)?
The value was 1.6 ± 0.1.

What about the “INR value at 24 h” value ([2]; rats, oral (±) warfarin 0.2 mg/kg + CJ 5 g/kg given 10 h later) of the same molecule?
The value was 2.7 ± 0.5.

For `Nc1ccc(S(=O)(=O)Nc2ccnn2-c2ccccc2)cc1` [SFZ, sulfaphenazole], which “Decrease of CYP2C9 activity” value (CYP2C9) is on record?
Its value is 19%.
